From ChEMBL document CHEMBL1135095, “3-D QSAR studies on new dibenzyltin(IV) anticancer agents by comparative molecular field analysis (CoMFA)” (Bioorg Med Chem Lett, 2002)

Assays:
Mus musculus = species: Mus musculus; experiment: Lethal dose in swiss albino mice by peroral route; assay type: toxicity, organism-based; settings: in vivo, po
IGROV-1 = experiment: In vitro antitumor activity against IGROV human cancer cell line; assay type: functional, cell-based
SK-MEL19 = experiment: In vitro antitumor activity against MEL 19 human cancer cell line; assay type: functional, cell-based
WiDr = experiment: In vitro antitumor activity against WIDR human cancer cell line; assay type: functional, cell-based

Row | Sequence | LD50 (Mus musculus) [mg/kg] | ID50 (IGROV-1) [µM] | ID50 (SK-MEL19) [µM] | ID50 (WiDr) [µM]
1 | CARBOPLATIN [listing 1 of 2 here] | 150 | – | – | –
2 | CARBOPLATIN [listing 2 of 2 here] | – | 646 | 1480 | 943
3 | CISPLATIN [listing 1 of 2 here] | 31 | – | – | –
4 | CISPLATIN [listing 2 of 2 here] | – | 75 | 260 | 450
